From a compilation of properties of binary mixtures (doi:10.1016/j.molliq.2016.03.072)

Assay: xn = mol fraction of the nth substance listed
Details: 101 kPa

Structure (SMILES): CCCC[n+]1ccn(C)c1.F[P-](F)(F)(F)(F)F + CN(C)C=O
- viscosity (303.15 K, x2 = 0.3028): 52.1 mPa·s
- viscosity (303.15 K, x2 = 0.4909): 15.21 mPa·s
- viscosity (303.15 K, x2 = 0.6262): 6.21 mPa·s
- viscosity (303.15 K, x2 = 0.7227): 3.48 mPa·s
- viscosity (303.15 K, x2 = 0.8543): 1.93 mPa·s
- viscosity (303.15 K, x2 = 0.9012): 1.5 mPa·s
- viscosity (303.15 K, x2 = 0.9724): 0.98 mPa·s
- viscosity (313.15 K, x2 = 0): 129.7 mPa·s
- viscosity (313.15 K, x2 = 0.3028): 28.84 mPa·s
- viscosity (313.15 K, x2 = 0.6262): 5.2 mPa·s
- viscosity (313.15 K, x2 = 0.7227): 3.33 mPa·s
- viscosity (313.15 K, x2 = 0.7963): 2.12 mPa·s
- viscosity (313.15 K, x2 = 0.9012): 1.26 mPa·s
- viscosity (313.15 K, x2 = 0.9399): 1.05 mPa·s
- viscosity (313.15 K, x2 = 0.9724): 0.83 mPa·s
- viscosity (323.15 K, x2 = 0): 88.5 mPa·s
- viscosity (323.15 K, x2 = 0.3028): 25.91 mPa·s
- viscosity (323.15 K, x2 = 0.7227): 2.2 mPa·s
- viscosity (323.15 K, x2 = 0.7963): 1.82 mPa·s
- viscosity (323.15 K, x2 = 0.8543): 1.51 mPa·s
- viscosity (323.15 K, x2 = 0.9012): 1.08 mPa·s
- viscosity (323.15 K, x2 = 0.9399): 0.91 mPa·s
- viscosity (323.15 K, x2 = 0.9724): 0.77 mPa·s

Structure (SMILES): CN(C)C=O + CCCC[n+]1ccn(C)c1.F[P-](F)(F)(F)(F)F
- viscosity (303.15 K, x1 = 1): 0.83 mPa·s
- viscosity (313.15 K, x1 = 1): 0.74 mPa·s
- viscosity (323.15 K, x1 = 1): 0.66 mPa·s
